Results reported in article PMC11882969 (Nature Communications, 2025).
Several values for one entry are separate records, joined by “and”; a condition that tells them apart may be missing. Equal values may be shown once. Entries after “also recorded” stand apart in the source; their conditions may differ.

How the values were obtained:
CB1R = assay: Bimane fluorescence of labeled CB1R; type: biochemical, human; settings: 10 μM ligand; apo 459 nm
Description: A minimal cysteine version of CB1R was generated[85] where all the cysteine residues (except C256 and C264) were mutated to alanine. […] Excess label was removed using size exclusion chromatography on a Superdex 200 10/300 Increase column in 20 mM HEPES pH 7.5, 100 mM NaCl and 0.01% MNG/0.001% CHS. Bimane-labeled CB1R at […] was incubated with ligands (10 μM) for one hour at room temperature. Fluorescence data was collected at room temperature in a 150 μL cuvette with a FluorEssence v3.8 software on a Fluorolog instrument (Horiba) in photon-counting mode. Bimane fluorescence was measured by excitation at 370 nm with excitation and emission bandwidth passes of 4 nm. The emission spectra were recorded from 410 to 510 nm with 1 nm increment and 0.1 s integration time.

mice [1] = assay: Tail flick, 50 °C water bath; type: in vivo, mouse; settings: for analgesic response normalised to baseline, WT vs CB1R KO (Figure5d), individual animals / Response relative to Baseline, individual animals (FigS11c): 0.2 mg/kg; for Response relative to Baseline, individual animals (FigS11c): test not printed on the sheet
mice [2] = assay: Acetone test, cold allodynia after spared nerve injury; type: in vivo, mouse
Description: Mice were placed on a wire mesh and thirty min after an i.p. injection of the compounds we applied a drop (50 μL) of acetone on the ventral aspect of the hindpaw, 5 times every 30 sec. We recorded the number of nocifensive behaviors (paw lifts/licks/shakes/bites) over the 5 applications.

[3] = Pharmacokinetics: plasma, brain, CSF; settings: for concentration at 1 min / concentration at 5 min / concentration at 15 min / concentration at 30 min / concentration at 60 min / concentration at 120 min / concentration at 240 min / concentration at 360 min / concentration at 480 min: intraperitoneal
hCB1 = hCB1 (Homo sapiens, UniProt P21554); assay: Radioligand competition binding at hCB1; design: host or cells: HEK293SL cells, transient PEI transfection; settings: for radioligand binding, competition curve point (normalized): log[drug]
Chain of hCB1 (P21554 whole entry): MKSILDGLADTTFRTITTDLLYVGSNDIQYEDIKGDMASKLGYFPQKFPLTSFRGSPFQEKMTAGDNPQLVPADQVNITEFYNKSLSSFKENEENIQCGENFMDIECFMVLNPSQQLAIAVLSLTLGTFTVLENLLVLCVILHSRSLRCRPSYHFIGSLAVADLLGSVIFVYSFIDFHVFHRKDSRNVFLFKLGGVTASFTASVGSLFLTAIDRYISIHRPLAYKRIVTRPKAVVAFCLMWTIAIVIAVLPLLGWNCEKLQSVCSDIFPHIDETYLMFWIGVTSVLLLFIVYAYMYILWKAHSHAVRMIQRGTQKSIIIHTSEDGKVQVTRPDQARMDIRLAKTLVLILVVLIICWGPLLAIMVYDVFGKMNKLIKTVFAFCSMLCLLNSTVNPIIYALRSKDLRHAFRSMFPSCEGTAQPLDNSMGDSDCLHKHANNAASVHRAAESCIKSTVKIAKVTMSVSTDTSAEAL

hCB2 = hCB2 (Homo sapiens, UniProt P34972); assay: Radioligand competition binding, HEK293 cells expressing human CB2R; design: expressed in transfected cells; host or cells: HEK293 cells stably expressing human CB2R (Laboratory of Ken Mackie); settings: hCB2, log[drug], replicate columns
Chain of hCB2 (P34972 whole entry): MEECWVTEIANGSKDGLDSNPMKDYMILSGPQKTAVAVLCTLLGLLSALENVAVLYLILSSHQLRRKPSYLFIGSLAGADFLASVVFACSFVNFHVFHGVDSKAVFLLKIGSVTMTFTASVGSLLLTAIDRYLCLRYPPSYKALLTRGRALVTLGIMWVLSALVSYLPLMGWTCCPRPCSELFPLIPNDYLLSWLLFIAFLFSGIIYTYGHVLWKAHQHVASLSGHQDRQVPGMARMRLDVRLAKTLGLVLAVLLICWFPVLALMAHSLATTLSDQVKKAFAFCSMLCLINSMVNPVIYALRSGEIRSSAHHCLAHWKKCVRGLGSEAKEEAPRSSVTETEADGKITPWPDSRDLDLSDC

[4] = male, CD-1, mouse, CSF, 0.2 mg/kg
[5] = male, CD-1, mouse, brain, 0.2 mg/kg
[6] = male, CD-1, mouse, plasma, 0.2 mg/kg
[7] = male, CD-1, mouse, plasma, ip, 0.2 mg/kg

Compound: COC(=O)[C@@](C)(NC(=O)c1cc(C)n(-c2cccc(C(F)(F)F)c2)n1)c1cccs1 [‘1350]
- bimane spectrum λmax (CB1R): 463 nm
- tail flick latency on cotreatment with morphine (mice [1]; 0.05 and 0.1 mg/kg plus morphine 3.0 mg/kg i.p.): significantly longer tail-flick latencies than did mice injected with morphine alone
- effect of CB1R knockout on analgesia, tail flick (mice [1]; CB1R KO mice): completely blocked the analgesic effect
- analgesic response normalised to baseline, WT vs CB1R KO (Figure5d), individual animals (mice [1]; CB1R KO mice): 106.345 and 98.767 and 101.721 and 166.196 and 107.501
- Response relative to Baseline, individual animals (FigS11c) (mice [1]; CB2R KO mice): 164.985 and 191.573 and 174.006 and 295.549 and 230.504 and 308.843 and 149.555 and 202.493 and 243.323 and 186.825
- tail flick response normalised to baseline (Figure4a), individual animals (mice [1]; Dose 0.05 mg/kg): 119.013 and 100.323 and 160.799 and 150.926 and 127.123
- tail flick response normalised to baseline (Figure4a), individual animals (mice [1]; Dose 0.1 mg/kg): 155.51 and 183.368 and 185.307 and 158.155 and 125.713
- tail flick response normalised to baseline (Figure4a), individual animals (mice [1]; Dose 0.2 mg/kg): 215.281 and 170.849 and 208.757 and 269.409 and 238.025
- tail flick response normalised to baseline (Figure4a), individual animals (mice [1]; Dose 0.5 mg/kg): 229.386 and 270.644 and 271.701 and 225.86 and 268.175
- analgesic response normalised to baseline, WT vs CB1R KO (Figure5d), individual animals (mice [1]; WT mice): 175.053 and 136.358 and 121.523 and 181.234 and 162.69 and 195.08 and 109.284 and 151.687 and 140.809 and 142.663
- Response relative to Baseline, individual animals (FigS11c) (mice [1]; WT mice): 303.35 and 281.096 and 250.176 and 198.641 and 149.684 and 198.173 and 421.644 and 117.592 and 166.55 and 75.1933
- lowest dose with significantly increased tail flick latency (mice [1]; i.p., 30 min after injection): 0.1 mg/kg
- acetone test response after spared nerve injury (Figure5b), individual animals (mice [2]; Dose 0.05 mg/kg): 48 and 66 and 108 and 56 and 46
- acetone test response after spared nerve injury (Figure5b), individual animals (mice [2]; Dose 0.1 mg/kg): 38 and 48 and 28 and 64 and 18
- acetone test response after spared nerve injury (Figure5b), individual animals (mice [2]; Dose 0.2 mg/kg): 26 and 54 and 32
- lowest dose with significant anti-allodynia, acetone test (mice [2]; i.p.): 0.05 mg/kg
- effect on acetone-induced nocifensive behaviors (mice [2]; spared nerve injury, i.p.): strongly reduced spared nerve injury-induced cold allodynia
- brain AUC0→inf ([3]; 0.2 mg/kg i.p., CD-1 mice): 8180 ng·min/mL
- brain Cmax ([3]; 0.2 mg/kg i.p., CD-1 mice): 44.1 ng/g
- level in CSF ([3]; 0.2 mg/kg i.p., CD-1 mice): but not CSF compartments; also recorded: below the quantification limit
- concentration at 1 min [3, 4]: 0 ng/mL
- concentration at 5 min [3, 4]: 1.2 ng/mL
- concentration at 15 min [3, 4]: 0 ng/mL
- concentration at 30 min [3, 4]: 0 ng/mL
- concentration at 60 min [3, 4]: 0 ng/mL
- concentration at 120 min [3, 4]: 0 ng/mL
- concentration at 240 min [3, 4]: 0 ng/mL
- concentration at 360 min [3, 4]: 0 ng/mL
- concentration at 480 min [3, 4]: 0.14 ng/mL
- concentration at 1 min [3, 5]: 0 ng/g
- concentration at 5 min [3, 5]: 8.24 ng/g
- concentration at 15 min [3, 5]: 41.8 ng/g
- concentration at 30 min [3, 5]: 29.5 ng/g
- concentration at 60 min [3, 5]: 44.1 ng/g
- concentration at 120 min [3, 5]: 33.1 ng/g
- concentration at 240 min [3, 5]: 4.35 ng/g
- concentration at 360 min [3, 5]: 8.81 ng/g
- concentration at 480 min [3, 5]: 2.87 ng/g
- half-life ([3]; male, CD-1, mouse, brain, ip, 0.2 mg/kg): 1.87 h
- concentration at 1 min [3, 6]: 0 ng/mL
- concentration at 5 min [3, 6]: 6.41 ng/mL
- concentration at 15 min [3, 6]: 10.8 ng/mL
- concentration at 30 min [3, 6]: 5.48 ng/mL
- concentration at 60 min [3, 6]: 7.25 ng/mL
- concentration at 120 min [3, 6]: 6.15 ng/mL
- concentration at 240 min [3, 6]: 0.376 ng/mL
- concentration at 360 min [3, 6]: 1.1 ng/mL
- concentration at 480 min [3, 6]: 0.486 ng/mL
- AUC(0-inf) [3, 7]: 25.2 ng·h/mL
- Cmax [3, 7]: 10.8 ng/mL and 25 nM
- half-life [3, 7]: 1.85 h
- Ki (hCB1): 0.32 nM
- radioligand binding, competition curve point (normalized) (hCB1; M = -6.64345, replicate columns): 11.7845 and 1.336
- radioligand binding, competition curve point (normalized) (hCB1; M = -7.35666, replicate columns): 11.2233 and 0.827
- radioligand binding, competition curve point (normalized) (hCB1; M = -8.06987, replicate columns): 12.4018 and 13.4224
- radioligand binding, competition curve point (normalized) (hCB1; M = -8.78308, replicate columns): 40.0112 and 26.5903
- radioligand binding, competition curve point (normalized) (hCB1; M = -9.49629, replicate columns): 69.0236 and 54.2939
- radioligand binding, competition curve point (normalized) (hCB1; M = -10.2095, replicate columns): 97.7273 and 72.2328
- radioligand binding, competition curve point (normalized) (hCB1; M = -11.9245, replicate columns): 99.9439 and 88.4224
- radioligand binding, competition curve point (normalized) (hCB1; M = -13.6383, replicate columns): 102.525 and 91.0941
- radioligand binding, competition curve point (normalized) (hCB2; M = -6.64345): 1.586 and -0.1332
- radioligand binding, competition curve point (normalized) (hCB2; M = -7.35666): 2.208 and 1.359
- radioligand binding, competition curve point (normalized) (hCB2; M = -8.06987): 13.0908 and 10.365
- radioligand binding, competition curve point (normalized) (hCB2; M = -8.78308): 37.5933 and 37.49
- radioligand binding, competition curve point (normalized) (hCB2; M = -9.49629): 71.1443 and 45.0839
- radioligand binding, competition curve point (normalized) (hCB2; M = -10.2095): 95.3669 and 77.3781
- radioligand binding, competition curve point (normalized) (hCB2; M = -10.9227): 103.545 and 89.3952
- radioligand binding, competition curve point (normalized) (hCB2; M = -11.6359): 105.504 and 103.118

Compound: COC(=O)[C@](C)(NC(=O)c1cc(C)n(-c2cccc(C(F)(F)F)c2)n1)c1cccs1 [‘8690]
- bimane spectrum λmax (CB1R): 459 nm
